# Test results taken from patent US7563893B2, “3-Phenyl-cinnoline analogue and antitumor agent using the same” (Nippon Kayaku Kabushiki Kaisha, priority 2002, dated 2009).
# What was measured:
# Mammary tumor cell MCF-7 = experiment: Antitumor effect in vitro, proliferation inhibition (methylene blue staining, absorption at 660 nm); format: cell-based; details: MCF-7, 2000 cells, incubated 3 days with compound; for IC50: Homo sapiens, MCF7, 72 h, read-out: IC50 (50% cell proliferation inhibitory concentration), MCF-7
# Method: (§1) Antitumor Effect in vitro Using Mammary Tumor Cell MCF-7 and MDA-MB-453
# (§2) Each MCF-7, 2000 cells, and MDA-MB-453, 4000 cells, was inoculated using 10% serum added RPMI 1640 medium (Asahi Technoclass Inc.) into a 96 well plate. After incubating these cells at 37° C., under atmosphere of 5% CO2/95% air for 24 hours, each of the compounds of Examples 1, 2, 6, 9-13, 20, 24, 26, 27, 65, 66, 70, 71, 72 and 73 was added and incubated for further 3 days. Cells were stained with a 0.05% methylene blue solution and measured using a microplate reader (Benchmark Plus, Bio-Rad Laboratories) by absorption at 660 nm. Proliferation inhibition rate was calculated by the following equation, and 50% cell proliferation inhibitory concentrations of the compounds of Examples 1, 2, 6, 9-13, 20, 24, 26, 27, 65, 66, 70, 71, 72 and 73 were shown in Table 2. Proliferation inhibition rate=(1−absorbance with drug addition÷absorbance in control)×100
# [1] = tested on: Mammary tumor cell MDA-MB-453; experiment: as above; format: cell-based; details: MDA-MB-453, 4000 cells, incubated 3 days with compound; for IC50: Homo sapiens, 72 h, read-out: IC50 (50% cell proliferation inhibitory concentration), MDA-MB-453
# Method: as §1, §2
# [2] = tested on: mammary tumor cells, T-47D; experiment: Antitumor effect in vitro, proliferation inhibition, same condition as Test Example 1; format: cell-based; details: Homo sapiens, T47D, 4000 cells
# Method: as §2
# Further, a test was conducted by using 4000 mammary tumor cells, T-47D, by adding a compound of example 65 or 66 under the same condition hereinabove.
# [3] = tested on: Mammary tumor cells ZR-75-1; experiment: Antitumor effect in vivo, subcutaneous tumor in nude mice; details: day 15 after initiating administration; oral 500 mg/kg once a day for 14 days; ZR-75-1 in female nude mice
# Method: Antitumor Effect in vivo Using Mammary Tumor Cell ZR-75-1
# Mammary tumor cells ZR-75-1 were inoculated in dorsal subcutaneous region of female nude mice. The compound of example 66 and example 53 was administered orally at dose level of 500 mg/kg, once a day, for 14 days consecutively from the point of initiating logarithmic growth of tumor cells. Conjugate axis and transverse axis of tumor were measured in the time dependent manner, and tumor volume was calculated by the following equation. Relative tumor volume, wherein tumor volume at the time of initiating administration was set as 1, was calculated. Effectiveness was judged by value (T/C) wherein tumor volume in the treated group is divided by tumor volume in the control group. tumor volume=conjugate axis×conjugate axis×transverse axis/2
Compound,IC50 (Mammary tumor cell MCF-7),IC50 [1],other results
"CC1CC(=O)c2cc(-c3cccc([N+](=O)[O-])c3)nnc2C1 (stereo not drawn) [Example 20, 7-methyl-3-(3-nitrophenyl)-7,8-dihydro-6H-cinnolin-5-one]",1.41 µg/mL,9.35 µg/mL,–
"COc1cc(C)cc2nnc(-c3cccc(C(F)(F)F)c3)cc12 [Example 71, 5-methoxy-7-methyl-3-(3-trifluoromethylphenyl)cinnoline]",0.158 µg/mL,3.36 µg/mL,–
"Cc1cc(OCc2ccccc2)c2cc(-c3cccc(C(F)(F)F)c3)nnc2c1 [Example 73, 5-benzyloxy-7-methyl-3-(3-trifluoromethylphenyl)cinnoline]",0.399 µg/mL,2.6 µg/mL,–
"CC(=O)Oc1cc(C)cc2nnc(-c3cccc(C(F)(F)F)c3)cc12 [Example 72, 5-acetyloxy-7-methyl-3-(3-trifluoromethylphenyl)cinnoline]",0.138 µg/mL,0.42 µg/mL,–
"7-benzyl-3-(3-trifluoromethylphenyl)-7,8-dihydro-6H-pyrido[3,4-c]-pyridazin-3-one [Example 26]",–,–,"IC50 (50% cell proliferation inhibitory concentration), MCF-7 (Mammary tumor cell MCF-7): 0.3610 µg/mL; IC50 (50% cell proliferation inhibitory concentration), MDA-MB-453 [1]: 8.9300 µg/mL"
"CCOC(=O)C1CC(=O)c2cc(-c3cccc(C(F)(F)F)c3)nnc2C1 (stereo not drawn) [Example 2, ethyl 5-oxo-3-(3-trifluoro-methylphenyl)-7,8-dihydro-6H-cinnoline-7-carboxylate]",–,–,"IC50 (50% cell proliferation inhibitory concentration), MCF-7 (Mammary tumor cell MCF-7): 1.9600 µg/mL; IC50 (50% cell proliferation inhibitory concentration), MDA-MB-453 [1]: 1.5700 µg/mL"
"CC(=O)OC1CC(C)Cc2nnc(-c3cccc(C(F)(F)F)c3)cc21 (stereo not drawn) [Example 11, 5-acetyloxy-7-methyl-3-(3-trifluoromethylphenyl)-5,6,7,8-tetrahydrocinnoline]",0.0455 µg/mL,0.848 µg/mL,–
CC(C)[C@H](N)C(=O)O[C@@H]1C[C@@H](C)Cc2nnc(-c3cccc(C(F)(F)F)c3)cc21.Cl.Cl,–,–,melting point: 181 to 185 °C
"CC1Cc2nnc(-c3cccc(C(F)(F)F)c3)cc2C(O)C1 (stereo not drawn) [Example 9, syn-(−)-7-methyl-3-(3-trifluoromethylphenyl)-5,6,7,8-tetrahydrocinnolin-5-ol]",–,–,"IC50 (50% cell proliferation inhibitory concentration), MCF-7 (Mammary tumor cell MCF-7): 0.0772 µg/mL; IC50 (50% cell proliferation inhibitory concentration), MDA-MB-453 [1]: 0.3390 µg/mL"
"CC(C)(O)C1Cc2nnc(-c3cccc(C(F)(F)F)c3)cc2C(O)C1 (stereo not drawn) [Example 27, 7-(2-hydroxy-2-propyl)-3-(3-trifluoromethylphenyl)-5,6,7,8-tetrahydrocinnolin-5-ol]",0.271 µg/mL,4.72 µg/mL,–
"O=C1CCCc2c1cc(-c1cccc(C(F)(F)F)c1)n[n+]2[O-] [Example 13, 5-oxo-1-oxy-3-(3-trifluoromethylphenyl)-7,8-dihydro-6H-cinnoline]",–,–,"IC50 (50% cell proliferation inhibitory concentration), MCF-7 (Mammary tumor cell MCF-7): 0.0671 µg/mL; IC50 (50% cell proliferation inhibitory concentration), MDA-MB-453 [1]: 0.9510 µg/mL"
"CC1Cc2nnc(-c3cccc(C(F)(F)F)c3)cc2C(O)C1 (stereo not drawn) [Example 10, syn-(+)-7-methyl-3-(3-trifluoromethylphenyl)-5,6,7,8-tetrahydrocinnolin-5-ol]",–,–,"IC50 (50% cell proliferation inhibitory concentration), MCF-7 (Mammary tumor cell MCF-7): 0.0982 µg/mL; IC50 (50% cell proliferation inhibitory concentration), MDA-MB-453 [1]: 1.5400 µg/mL"
"CC1CC(=O)C2=C(C1)NN=C(c1cccc(C(F)(F)F)c1)C2 (stereo not drawn) [Example 65, 7-methyl-3-(3-trifluoromethylphenyl)-4,6,7,8-tetrahydro-1H-cinnolin-5-one]",0.1 µg/mL,1.64 µg/mL,IC50 [2]: 0.67 µg/mL
"CC1Cc2nnc(-c3cccc(C(F)(F)F)c3)cc2C(O)C1 (racemic) [Example 6, 7-methyl-3-(3-trifluoromethylphenyl)-5,6,7,8-tetrahydrocinnolin-5-ol]",0.0499 µg/mL,1.47 µg/mL,–
CC(C)[C@H](N)C(=O)O[C@H]1C[C@H](C)Cc2nnc(-c3cccc(C(F)(F)F)c3)cc21.Cl.Cl,–,–,melting point: 186 to 189 °C
"CC1Cc2nnc(-c3cccc(C(F)(F)F)c3)cc2C(OC(=O)[C@@H](N)C(C)C)C1.Cl.Cl (stereo partly drawn) [Example 53, 5-(L-valyloxy)-7-methyl-3-(3-trifluoromethylphenyl)-5,6,7,8-tetrahydrocinnoline dihydrochloride]",–,–,T/C value (tumor volume in treated group divided by control group) [3]: 34.0%; melting point: 201 to 203 °C
CC(C)[C@H](N)C(=O)O[C@@H]1C[C@H](C)Cc2nnc(-c3cccc(C(F)(F)F)c3)cc21.Cl.Cl,–,–,melting point: 162 to 165 °C
"Cc1cc(O)c2cc(-c3cccc(C(F)(F)F)c3)nnc2c1 [Example 70, 7-methyl-3-(3-trifluoromethylphenyl)cinnolin-5-ol]",0.181 µg/mL,0.551 µg/mL,–
"CC1CC(=O)c2cc(-c3cccc(C(F)(F)F)c3)nnc2C1 (stereo not drawn) [Example 66, 7-methyl-3-(3-trifluoromethylphenyl)-7,8-dihydro-6H-cinnolin-5-one]",0.05 µg/mL,1.26 µg/mL,IC50 [2]: 0.28 µg/mL; T/C value (tumor volume in treated group divided by control group) [3]: 30.3%
"O=C1CC(c2ccccc2)Cc2nnc(-c3cccc(C(F)(F)F)c3)cc21 (stereo not drawn) [Example 1, 7-phenyl-3-(3-trifluoro-methylphenyl)-7,8-dihydro-6H-cinnolin-5-one]",–,–,"IC50 (50% cell proliferation inhibitory concentration), MCF-7 (Mammary tumor cell MCF-7): 0.0388 µg/mL; IC50 (50% cell proliferation inhibitory concentration), MDA-MB-453 [1]: 0.0395 µg/mL"
"CC1CC(=O)c2cc(-c3cccc(F)c3)nnc2C1 (stereo not drawn) [Example 24, 3-(3-fluorophenyl)-7-methyl-7,8-dihydro-6H-cinnolin-5-one]",3.57 µg/mL,4.95 µg/mL,–
